The results in this text go back to patent US20110263454A1, “Methods of Identifying Functional Characteristics of Promoters, Transcription Modifying Proteins and Transcription Modulating Agents” (Salk Institute for Biological Studies, priority 2008, published 2011).

For assay [1], the system named is MCP-1 promoter. The assay is described as follows: NHR-promoter luciferase screen, MCP-1 promoter. It counts as cell-based. As to conditions: for Normalized Luc. act., normalized to control / Luc. act., normalized to lacZ: MCP-1 promoter reporter; for Normalized Luc. act., normalized to control: HR without or with its ligand, relative to control; for Luc. act., normalized to lacZ: hormone receptor (HR) without or with its ligand; for mMCP-1 promoter reporter activity: transcription factor +/- ligand, control = 1.00. Here is the method: (§1) The use, feasibility, and reproducibility of the functional NHR-promoter screen in a 48-well format have been tested validated. Briefly, there were co-expressed 50 ng of each NHR/NHR homodimer or NHR/RXR heterodimer with 100 ng promoter/luciferase construct and 50 ng of LacZ (as a control for transfection efficiency) in CV-1 cells using Fugene HD (Roche) as a transfection reagent (alternatively or additionally, a CMV-YFP construct can be used as a transfection control). Each of the nuclear hormone receptors that were used in these experiments was cloned into a pcDNA3.1 vector and comprised a C-terminally linked V5H6 tag. Twenty-four hours after transfection, appropriate ligands were added, where applicable, (see Table 5 for various ligands and concentrations and after 48 hrs, samples were assayed for luciferase and LacZ activity. To measure for luciferase activity 15 ul of sample was added to 30 ul of luciferase buffer (20 mM tricine, 1.07 mM MgCarbonate, 2.67 mM MgSulfate, 0.1 mM Naz-EDTA, 5 mM DTT, 5 mM ATP, 0.15 mg/ml CoA, 0.5 mM Luciferin), mixed briefly, and run in a Perkin Elmer Victor 5 luminometer. Thus, the functional NHR-promoter screen was used to observe the transcriptional activity of 29 promoters from various physiological pathways including inflammation, lipid and sugar metabolism, cholesterol transport, xenobiotic metabolism, and circadian rhythm.
(§2) The promoters that facilitate transcription of the indicated gene products that were tested using the protocols described herein are listed in the first row of the table. The nuclear hormone receptors and, where applicable, ligands that were assayed for their transcriptional effects on the promoters are listed in the first column of the table. The data represent the luciferase activity of each sample normalized to both the lacZ activity of that sample and to a control, e.g., no NHR or ligand, as customary in the art. As described previously, these normalizations allow the transcriptional activity of each reporter cell to be compared to other samples.
(§3) Tables 7-40 show the transcriptional effects of the hormone receptors, and, where applicable, ligands (orphan receptors are screened without ligand), on each individual promoter. […] The control data of each table are shown in their last rows.

The test system of assay [2] is mUCP1 promoter. The assay is described as follows: NHR-promoter luciferase screen, mUCP1 promoter. It counts as cell-based, mouse. As to conditions: for Luc. act., normalized to lacZ / Normalized Luc. act., normalized to control: mUCP1 promoter reporter, co-transfected HR, with or without its ligand; for Normalized Luc. act., normalized to control: relative to control; for luciferase activity normalized to lacZ activity and to a control, mUCP!: mUCP! promoter-luciferase, CV-1 cells, NHR +/- ligand, control = 1.00. The procedure: as §1, §2, §3

The test system of assay [3] is mGhrelin promoter. The assay can be described thus: NHR-promoter luciferase screen, mGhrelin promoter. It counts as cell-based, mouse. The settings on record: for Luc. act., normalized to lacZ / Normalized Luc. act., normalized to control: Table 8, mGhrelin; for Results of assays of transcription factor (+/- ligand) with mGhrelin: Table 6d, luciferase activity relative to control (control = 1.00). Here is the method:
as §1, §2, §3

For assay [4], the system named is hG6PD promoter. The assay can be described thus: NHR-promoter luciferase screen, hG6PD promoter. It counts as cell-based, human. As to conditions: for Luc. act., normalized to lacZ / Normalized Luc. act., normalized to control: G6PD promoter reporter, co-transfected HR, without or with its ligand; for Normalized Luc. act., normalized to control: relative to control; for luciferase activity normalized to lacZ activity and to a control, hG6PD: hG6PD promoter-luciferase, CV-1 cells, NHR +/- ligand, control = 1.00. The procedure:
as §1, §2, §3

For assay [5], the system named is hPPARg2 promoter. The assay is described as follows: NHR-promoter luciferase screen, hPPARg2 promoter. It counts as cell-based, human. As to conditions: for Luc. act., normalized to lacZ / Normalized Luc. act., normalized to control: PPARG2 promoter, hormone receptor with or without its ligand; for Normalized Luc. act., normalized to control: relative to control; for Results of assays of transcription factor (+/- ligand) with hPPARg2: Table 6d, luciferase activity relative to control (control = 1.00). The procedure:
as §1, §2, §3

Assay [6] concerns hIFNg promoter. The assay is described as follows: NHR-promoter luciferase screen, hIFNg promoter. It counts as cell-based, human. The settings on record: for Luc. act., normalized to lacZ / Normalized Luc. act., normalized to control: IFNg promoter, HR component without or with ligand; for hIFNg promoter reporter activity: transcription factor +/- ligand, control = 1.00. The procedure:
as §1, §2, §3

On to “AR: Androsterone Receptor (NR3C4), cDNA driver”, for which, in assay [1], the “Normalized Luc. act., normalized to control” value was found to be 0.6; the “Luc. act., normalized to lacZ” value is on record as 62.4; the “mMCP-1 promoter reporter activity” value stood at 0.58. Also, in assay [2], the “Luc. act., normalized to lacZ” value worked out at 3.3; the “Normalized Luc. act., normalized to control” value is given as 0.7; the “luciferase activity normalized to lacZ activity and to a control, mUCP!” value (“luciferase activity normalized … mUCP!” for short) is listed as 0.74. Also, in assay [3], the “Luc. act., normalized to lacZ” value was determined as 39.2; the “Normalized Luc. act., normalized to control” value worked out at 0.8; the “Results of assays of transcription factor (+/- ligand) with mGhrelin” value (shortened to “Results of assays … with mGhrelin”) amounted to 0.75. In addition, in assay [4], the “Luc. act., normalized to lacZ” value is listed as 41.5; the “Normalized Luc. act., normalized to control” value came out at 1.1; the “luciferase activity normalized to lacZ activity and to a control, hG6PD” value (“luciferase activity normalized … hG6PD” for short) is 1.11. In addition, in assay [5], the “Luc. act., normalized to lacZ” value stood at 2.7; the “Normalized Luc. act., normalized to control” value was determined as 1.3; the “Results of assays of transcription factor (+/- ligand) with hPPARg2” value (shortened to “Results of assays … with hPPARg2”) worked out at 1.34. Also, in assay [6], the “Luc. act., normalized to lacZ” value worked out at 31.4; the “Normalized Luc. act., normalized to control” value is recorded as 2.0; the “hIFNg promoter reporter activity” value is on record as 1.97.
With “PPARg: Peroxisome proliferator activated receptor γ (NR1C3), cDNA driver”, in assay [1], the “Normalized Luc. act., normalized to control” value is recorded as 1.4; the “Luc. act., normalized to lacZ” value amounted to 146.1; the “mMCP-1 promoter reporter activity” value is listed as 1.36. Also, in assay [2], the “Luc. act., normalized to lacZ” value was 2.9; the “Normalized Luc. act., normalized to control” value was 0.7; the “luciferase activity normalized … mUCP!” value is recorded as 0.66. For the same substance, in assay [3], the “Luc. act., normalized to lacZ” value stood at 93.9; the “Normalized Luc. act., normalized to control” value is given as 1.8; the “Results of assays … with mGhrelin” value is given as 1.80. In assay [3] (mGhrelin promoter-luciferase, NHR +/- ligand, control = 1.0), the “luciferase/LacZ, mGhrelin (selected results)” value stood at 1.8. Besides, in assay [4], the “Luc. act., normalized to lacZ” value is given as 66.0; the “Normalized Luc. act., normalized to control” value is listed as 1.8; the “luciferase activity normalized … hG6PD” value is reported as 1.77. Besides, in assay [5], the “Luc. act., normalized to lacZ” value was 2.2; the “Normalized Luc. act., normalized to control” value was found to be 1.1; the “Results of assays … with hPPARg2” value is listed as 1.08. In assay [6], the “Luc. act., normalized to lacZ” value worked out at 24.04; the “Normalized Luc. act., normalized to control” value worked out at 1.5; the “hIFNg promoter reporter activity” value worked out at 1.51.
As for “LXRa: Liver X Receptor α (NR1H3), cDNA driver”, in assay [1], the “Normalized Luc. act., normalized to control” value is 0.9; the “Luc. act., normalized to lacZ” value was found to be 97.3; the “mMCP-1 promoter reporter activity” value came to 0.91. For the same substance, in assay [2], the “Luc. act., normalized to lacZ” value was determined as 3.1; the “Normalized Luc. act., normalized to control” value amounted to 0.7; the “luciferase activity normalized … mUCP!” value came to 0.69. In addition, in assay [3], the “Luc. act., normalized to lacZ” value stood at 56.7; the “Normalized Luc. act., normalized to control” value is 1.1; the “Results of assays … with mGhrelin” value is on record as 1.08. Also, in assay [4], the “Luc. act., normalized to lacZ” value is on record as 60.5; the “Normalized Luc. act., normalized to control” value was found to be 1.6; the “luciferase activity normalized … hG6PD” value is listed as 1.62. In assay [5], the “Luc. act., normalized to lacZ” value is given as 1.3; the “Normalized Luc. act., normalized to control” value came to 0.6; the “Results of assays … with hPPARg2” value was 0.64. Also, in assay [6], the “Luc. act., normalized to lacZ” value came to 24.59; the “Normalized Luc. act., normalized to control” value worked out at 1.5; the “hIFNg promoter reporter activity” value was determined as 1.55.
As to “RXRa: Retinoic X Receptor α (NR2B1), cDNA driver”, in assay [1], the “Normalized Luc. act., normalized to control” value was found to be 1.6; the “Luc. act., normalized to lacZ” value was 170.8; the “mMCP-1 promoter reporter activity” value is listed as 1.60. Further, in assay [2], the “Luc. act., normalized to lacZ” value came out at 2.9; the “Normalized Luc. act., normalized to control” value is on record as 0.7; the “luciferase activity normalized … mUCP!” value amounted to 0.66. Also, in assay [3], the “Luc. act., normalized to lacZ” value worked out at 57.4; the “Normalized Luc. act., normalized to control” value is reported as 1.1; the “Results of assays … with mGhrelin” value is on record as 1.10. In addition, in assay [4], the “Luc. act., normalized to lacZ” value was determined as 45.6; the “Normalized Luc. act., normalized to control” value is 1.2; the “luciferase activity normalized … hG6PD” value is on record as 1.22. Moreover, in assay [5], the “Luc. act., normalized to lacZ” value was 1.3; the “Normalized Luc. act., normalized to control” value was determined as 0.7; the “Results of assays … with hPPARg2” value came to 0.67. Also, in assay [6], the “Luc. act., normalized to lacZ” value was determined as 13.1; the “Normalized Luc. act., normalized to control” value is 0.8; the “hIFNg promoter reporter activity” value worked out at 0.82.
